Experimental data taken from patent publication US7094400B1, “Transkaryotic implantation” (Shire Human Genetic Therapies, Inc., priority 1987, dated 2006).

Assays:
[1] = tested on: Transfected cells which expressed human growth hormone; assay: Effects of immunosuppression on IP cells, serum human growth hormone; type: in vivo; conditions: for serum human growth hormone: in ng/mL
Text: If the transfected cells are destroyed by transplant rejection, immunosuppression should prolong the functional life of the implant.

[2] = tested on: mouse metallothionein-I promoter; assay: Zinc induction of hGH expression from intraperitoneally implanted cells (metallothionein-I promoter); type: in vivo, mice; conditions: 76 mM ZnSO4 in drinking water; IP stably transfected cells
Method: As described above, the plasmid pXGH5 contains the mouse metallothionein-I promoter. In order to determine whether the implanted cells were sufficiently healthy to respond to their local environment, the ability of zinc to induce higher levels of human growth hormone expression was determined. Stably transfected cells, prepared as described in Example 1B, were implanted intraperitoneally in mice, some of which were given 76 mM ZnSO4 in their drinking water. The animals treated with zinc expressed ten-fold more human growth hormone in their serum than did those with no treatment. […] Furthermore, RNA prepared from cells recovered from subcapsular implants contained the correct mMT-I/human growth hormone fusion mRNA (FIG. 5). […] Of substantial importance is the fact that the cells, once in place in the animal, could still be modulated by external means.

SMILES	serum human growth hormone detectable until [1] [days post-implantation]	serum human growth hormone ([1]; day 1 post-implantation)	serum human growth hormone ([1]; day 2 post-implantation)	serum human growth hormone ([1]; day 4 post-implantation)	serum human growth hormone ([1]; day 21 post-implantation)	serum human growth hormone ([1]; day 27 post-implantation)	serum human growth hormone ([1]; day 41 post-implantation)	serum human growth hormone ([1]; day 48 post-implantation)	serum human growth hormone ([1]; days 8 to 10 post-implantation)	serum human growth hormone ([1]; days 15 to 17 post-implantation)	human growth hormone in serum versus no treatment [2]
C[C@@H]1C[C@H]2[C@@H]3CCC4=CC(=O)C=C[C@]4(C)[C@@]3(F)[C@@H](O)C[C@]2(C)[C@@]1(O)C(=O)CO [Dexamethasone, dexamethasone]	48	94.8 +/− 9.2	86.6 +/− 10.5	54.3 +/− 14.2	28.0 +/− 13.6	13.9 +/− 6.9	7.5 +/− 6.1	2.7 +/− 2.2	99.3 +/− 48.0	28.3 +/− 18.1	–
O=S(=O)([O-])[O-].[Zn+2] [ZnSO4]	–	–	–	–	–	–	–	–	–	–	ten-fold more
